Test results from the NIST ThermoML archive (doi:10.1021/je9006597).

Columns and labels:
[1] = 101 kPa, Liquid; for speed of sound: Pulse-echo method
[2] = xn = mol fraction of the nth substance listed; settings: 101 kPa, Liquid; for speed of sound: Pulse-echo method

C1CCCCC1 [cyclohexane]
[1]
Settings | mass density [kg/m3] | speed of sound [m/s] | viscosity [mPa·s]
303.15 K | 768.3 | 1228 | 0.823
308.15 K | 764.4 | 1208 | 0.772
313.15 K | 760.5 | 1188 | 0.685

CCCCCCC [heptane]
[1]
Settings | mass density [kg/m3] | speed of sound [m/s] | viscosity [mPa·s]
303.15 K | 674.5 | 1116 | 0.375
308.15 K | 670.3 | 1092 | 0.35
313.15 K | 667.2 | 1072 | 0.325

CCCCCC [hexane]
[1]
Settings | mass density [kg/m3] | speed of sound [m/s] | viscosity [mPa·s]
303.15 K | 649.8 | 1048 | 0.283
308.15 K | 645.9 | 1028 | 0.269
313.15 K | 642.2 | 1008 | 0.252

COC(=O)c1ccccc1 [methyl benzoate]
[1]
Settings | mass density [kg/m3] | speed of sound [m/s] | viscosity [mPa·s]
303.15 K | 1078.3 | 1380 | 1.667
308.15 K | 1074.4 | 1364 | 1.514
313.15 K | 1070.3 | 1348 | 1.376

COC(=O)c1ccccc1 [methyl benzoate] + CCCCCCC
[2]
Settings | mass density, 303.15 K [kg/m3] | mass density, 308.15 K [kg/m3] | mass density, 313.15 K [kg/m3] | speed of sound, 303.15 K [m/s] | speed of sound, 308.15 K [m/s] | speed of sound, 313.15 K [m/s] | viscosity, 303.15 K [mPa·s] | viscosity, 308.15 K [mPa·s] | viscosity, 313.15 K [mPa·s]
x1 = 0.1154 | 715.5 | 711.3 | 708.1 | 1128 | 1108 | 1088 | 0.413 | 0.38 | 0.35
x1 = 0.2273 | 756.4 | 752.4 | 749.1 | 1148 | 1128 | 1108 | 0.467 | 0.43 | 0.401
x1 = 0.335 | 797.1 | 793.1 | 789.8 | 1168 | 1148 | 1128 | 0.533 | 0.494 | 0.458
x1 = 0.439 | 837.7 | 833.9 | 830.5 | 1192 | 1172 | 1152 | 0.627 | 0.575 | 0.529
x1 = 0.5404 | 878.6 | 874.8 | 871.3 | 1220 | 1196 | 1180 | 0.723 | 0.666 | 0.615
x1 = 0.6365 | 918.3 | 914.7 | 911.1 | 1248 | 1228 | 1212 | 0.84 | 0.781 | 0.728
x1 = 0.7324 | 959 | 955.3 | 951.7 | 1276 | 1260 | 1248 | 0.99 | 0.904 | 0.849
x1 = 0.8252 | 999.4 | 995.7 | 992.1 | 1308 | 1296 | 1284 | 1.172 | 1.068 | 0.982
x1 = 0.9133 | 1038.7 | 1034.8 | 1030.9 | 1348 | 1336 | 1324 | 1.404 | 1.284 | 1.15
x1 = 1 | 1078.3 | 1074.4 | 1070.3 | 1380 | 1364 | 1348 | 1.667 | 1.514 | 1.376
